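96-well plates; 48 h exposure; 5 concentrations. Endpoints by linear interpolation between flanking doses. Not reached: highest tested concentration assigned. Abbreviation: GI50, concentration required for 50% inhibition of growth. The concentration for full growth arrest is given as TGI.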
Assays:
Assay in all cases: DTP human tumour cell line panel, 48 h
786-0 renal = system: 786-0 renal
CAKI-1 renal = system: CAKI-1 renal
DU-145 prostate = system: DU-145 prostate
EKVX NSCLC = system: EKVX NSCLC
RPMI-8226 leukemia = system: RPMI-8226 leukemia
SK-MEL-2 melanoma = system: SK-MEL-2 melanoma
SK-MEL-28 melanoma = system: SK-MEL-28 melanoma
SNB-19 CNS = system: SNB-19 CNS

Row | SMILES | GI50 (786-0 renal) | TGI (786-0 renal) | GI50 (CAKI-1 renal) | TGI (CAKI-1 renal) | GI50 (DU-145 prostate) | TGI (DU-145 prostate) | GI50 (EKVX NSCLC) | TGI (EKVX NSCLC) | GI50 (RPMI-8226 leukemia) | TGI (RPMI-8226 leukemia) | GI50 (SK-MEL-2 melanoma) | TGI (SK-MEL-2 melanoma) | GI50 (SK-MEL-28 melanoma) | TGI (SK-MEL-28 melanoma) | GI50 (SNB-19 CNS) | TGI (SNB-19 CNS)
1 | CN(C)CCN1C(=O)c2ccccc2N(C)c2ccccc21 | > 100 µM | > 100 µM | > 100 µM | > 100 µM | > 100 µM | > 100 µM | > 100 µM | > 100 µM | > 100 µM | > 100 µM | > 100 µM | > 100 µM | > 100 µM | > 100 µM | > 100 µM | > 100 µM
2 | C=C(C)C(=O)Nc1ccc(NC(C)C)cc1 | > 100 µM | > 100 µM | > 100 µM | > 100 µM | > 100 µM | > 100 µM | > 100 µM | > 100 µM | > 100 µM | > 100 µM | > 100 µM | > 100 µM | > 100 µM | > 100 µM | > 100 µM | > 100 µM
3 | COc1ccc(C(=O)c2cc(OC)c(OC)c(OC)c2)cc1OC(=O)CCl | 0.554 µM | > 100 µM | 0.151 µM | > 100 µM | 0.0322 µM |  | 0.832 µM | > 100 µM | < 0.021 µM | 12.9 µM | 0.436 µM | > 100 µM | 0.358 µM | > 100 µM | < 0.0283 µM | > 100 µM
4 | C=C1C(=O)O[C@H]2[C@H]1CC/C(COC(=O)NCc1cn(C)c3ccccc13)=C\CC[C@@]1(C)O[C@@H]21 | 0.685 µM | 2.04 µM | 1.32 µM | 2.64 µM | 1.26 µM | 2.55 µM | 1.85 µM | 4.32 µM | 0.696 µM | 4.22 µM | 2.55 µM | 7.79 µM | 1.43 µM | 3.01 µM | 2.84 µM | 13 µM
5 | COc1cc([C@@H]2OC[C@@H]3C(c4cc(OC)c5c(c4)OCO5)OC[C@@H]32)cc(OC)c1OC (stereo partly specified) |  | > 100 µM |  | > 100 µM |  | > 100 µM |  | > 100 µM |  | > 100 µM |  | > 100 µM |  | > 100 µM |  | > 100 µM
6 | CC(=O)OCC1OC(n2cnc(C(N)=S)c2N)C(OC(C)=O)C1OC(C)=O (stereo unspecified) |  | > 100 µM |  | > 100 µM |  | > 100 µM |  |  |  | > 100 µM |  | > 100 µM |  | > 100 µM |  | > 100 µM
7 | CCC(C)(CC(C)(C)C(=O)NCC(=O)NC(Cc1ccccc1)C(=O)NC(Cc1ccccc1)C(=O)NCC(=O)NC1CC(OC2CC(O)(C(=O)CO)Cc3c(O)c4c(c(O)c32)C(=O)c2c(OC)cccc2C4=O)OC(C)C1O)C(=O)NCC(C)O (stereo unspecified) | 54.3 µg/mL | > 150 µg/mL | 90.9 µg/mL | > 150 µg/mL | 121 µg/mL | > 150 µg/mL | > 150 µg/mL | > 150 µg/mL | 36 µg/mL | > 150 µg/mL | 127 µg/mL | > 150 µg/mL | > 150 µg/mL | > 150 µg/mL | 69.2 µg/mL | > 150 µg/mL
8 | COc1ccc(/C(COc2ccc3c(=O)cc(-c4ccccc4)oc3c2)=N\O)cc1 | 17.2 µM | > 50 µM | 1.83 µM | 28.4 µM | 11.5 µM | > 47.4 µM | 2.05 µM | > 18 µM | 22.3 µM | > 50 µM | 13.3 µM | > 39.1 µM | 19.5 µM | > 41.9 µM | 18.7 µM | > 50 µM
9 | CN[C@@H](C)C(=O)N[C@H](C(=O)N1CCC[C@H]1C(=O)Nc1snnc1-c1ccccc1)C1CCCCC1 | 62.8 µM | > 100 µM | 68 µM | > 100 µM | 65.4 µM | > 100 µM |  |  | 43.9 µM | > 100 µM | 27.4 µM | > 63.9 µM | 23 µM | 61.6 µM | > 100 µM | > 100 µM
10 | COc1cnc2c(c1)C(=O)c1c-2n(CCCn2ccnc2)c(=O)c2cc(F)ccc12 | 0.0131 µM | 0.0563 µM |  |  | < 0.01 µM | 1.17 µM | 0.167 µM | > 100 µM | < 0.01 µM | 0.248 µM | 0.232 µM | 0.449 µM | 0.191 µM | 1.3 µM | < 0.01 µM | 11.4 µM
11 | CC(C)(C)OC(=O)N1CCN(CCn2cc(C(F)(F)F)c3c(Cl)ncnc32)CC1 | 14 µM | 27.2 µM |  |  | 2.96 µM | 9.2 µM | 11.3 µM | 25.7 µM | 3.77 µM | 12.3 µM | 1.93 µM | 3.9 µM | 1.74 µM | 3.25 µM | 2 µM | 3.72 µM
12 | CCCCNc1nc(C#N)c(N)s1 |  | > 100 µM |  | > 100 µM |  |  |  |  |  | > 100 µM |  | > 100 µM |  | > 100 µM |  | > 100 µM
13 | COc1cc(NC(C)CCCNC2CN3CCC2CC3)c2ncccc2c1 (stereo unspecified) | 13.4 µM | 27.1 µM | 13.4 µM | 38.9 µM | 16.4 µM | 30.2 µM | 12.1 µM | 26.7 µM |  |  | 23.3 µM | 52.4 µM | 11.3 µM | 23.7 µM | 15.8 µM | 32 µM
14 | COc1ccc(-c2nc(-c3nc4ccc(OC)cc4[nH]3)c3ccccn23)cc1 | 8.47 µM | > 100 µM | 3.81 µM | 49.4 µM | 4.11 µM | > 100 µM |  |  | 1.72 µM | 5.57 µM | 4.07 µM | 16.5 µM | 18.5 µM | > 100 µM | 5.26 µM | > 100 µM
15 | CC(C)(C)n1cc(-c2ccnc(NCCCNS(=O)(=O)c3ccc(C(F)(F)F)cc3)c2)c(-c2cccc(O)c2)n1 | 1.8 µM | 3.38 µM | 1.99 µM | 4.21 µM | 1.94 µM | 3.58 µM | 1.82 µM | 3.95 µM |  |  | 2.1 µM | 3.95 µM | 1.75 µM | 3.25 µM | 1.98 µM | 3.83 µM
16 | CN(CCCn1c2c(c3ccccc3c1=O)C(=O)c1ccccc1-2)CCCn1c2c(c3ccccc3c1=O)C(=O)c1ccccc1-2 | 0.0214 µM | 1.39 µM | 2 µM | 24.8 µM |  |  | 23.5 µM | > 100 µM |  |  | 27.6 µM | > 51.8 µM | 1.28 µM |  | 0.081 µM | 28 µM

— PubChem BioAssay (NCI)
